Earlier results in publication PMC9091901 (Journal of Pharmaceutical Analysis, 2021).

Conditions: octanol-water partition coefficient; ref DrugBank database

Row | SMILES | log P
1 | O=C(O)c1cccc(C(=O)O)n1 [2,6-pyridinedicarboxylic acid] | −0.44
2 | O=c1cc(O)c2ccccc2o1 [4-hydroxycoumarin] | 1.01
3 | NCC[C@H](O)C(=O)N[C@@H]1C[C@H](N)[C@@H](O[C@H]2O[C@H](CN)[C@@H](O)[C@H](O)[C@H]2O)[C@H](O)[C@H]1O[C@H]1O[C@H](CO)[C@@H](O)[C@H](N)[C@H]1O [Amikacin] | −3.20
4 | CCN(CC)Cc1cc(Nc2ccnc3cc(Cl)ccc23)ccc1O [Amodiaquine] | 3.70
5 | CC(C)(N)Cc1ccc(Cl)cc1 [Chlorphentermine] | 2.60
6 | CCOC(=O)C(C)(C)Oc1ccc(Cl)cc1 [Clofibrate] | 3.30
7 | O=c1[nH]c2ccccc2n1CCCN1CCC(n2c(=O)[nH]c3cc(Cl)ccc32)CC1 [Domperidone] | 3.90
8 | CN1C(=O)NC(=O)C(C)(C2=CCCCC2)C1=O (centres unmarked) [Hexobarbital] | 1.98
9 | CC1Cc2ccccc2N1NC(=O)c1ccc(Cl)c(S(N)(=O)=O)c1 (centres unmarked) [Indapamide] | 2.52
10 | CCOC(=O)C1=C(C)NC(C)=C(C(=O)OC)C1c1cccc([N+](=O)[O-])c1 (centres unmarked) [Nitrendipine] | 2.88
11 | CC(COc1ccccc1)N(CCCl)Cc1ccccc1 (centres unmarked) [Phenoxybenzamine] | 4.70
12 | CCN(CC)CCOC(=O)c1ccc(N)cc1 [Procaine] | 2.14
13 | CC(C)NCC(O)c1ccc(NS(C)(=O)=O)cc1 (centres unmarked) [Sotalol] | −0.40
14 | CC(C)(C)c1cc(O)ccc1O [Tert-butylhydroquinone] | 2.91
